The structures appear in SMILES notation.

In one assay the target is human TRPA1 channel (Homo sapiens (Human), UniProt O75762). Briefly: TRPA1 inhibitor activity, automated patch clamp (SyncroPatch). The format is cell-based. As to conditions: CHO cells inducibly expressing human TRPA1, currents elicited by carvacrol (300 μM), holding potential −60 mV. As for the experimental part:
This assay was used to evaluate the disclosed compounds' inhibition activities against the human TRPA1 channel.
CHO cells inducibly expressing human TRPA1 were grown in DMEM containing 10% heat-inactivated FBS, 1 mM Sodium Pyruvate, 2 mM L-Glutamine, Zeocin (100 μg/ml) and Blasticidin (10 μg/ml). Expression was induced by addition of Doxycycline (1 μg/ml) 24 hours before experiments. Cells used for electrophysiology were plated in plastic culture flasks and grown at 37° C. in a 5% CO2-humidified tissue culture incubator per ChanPharm SOP. Stocks were maintained in cryogenic storage.
The cells were bathed in an extracellular solution containing 80 mM NaCl, 60 mM NMDG, 4 mM KCl, 2 mM CaCl2), 6 mM MgCl2, 5 mM Glucose. 10 mM HEPES, 3 mM HEDTA; pH adjusted to 7.4 with NaOH; 305-310 mOsm. All compounds were dissolved in DMSO at 30 mM. The internal solution contained 10 mM CsCl, 110 mM CsF, 10 mM NaCl, 10 mM EGTA, 10 mM HEPES, 4 mM MgATP, 0.25 mM NaGTP, 4 mM BAPTA; pH adjusted to 7.2 with CsOH; 285-290 mOsm. Compound stock solutions were freshly diluted with external solution to concentrations of 3 nM, 10 nM 30 nM, 100 nM, 300 nM, 1 μM, 3 μM, 10 μM, and 30 μM. The highest content of DMSO (0.1%) was present at 30 μM.
All experiments were performed at room temperature. Each cell acted as its own control. In preparation for a current recording session, intracellular solution (see above) was loaded into the intracellular compartments of the automated patch clamp platform SyncroPatch (Nanion) chip and the cell suspension was pipetted into the extracellular compartments. After establishment of a whole-cell configuration, membrane current recordings and compound application were enabled by means of the SyncroPatch. TRPA1 currents were elicited by application of carvacrol (300 μM) at a constant holding potential of −60 mV (see Table A below).
To determine IC50 values, AUC and peak values, obtained in the presence of a given compound concentration, were normalized to control values in absence of compound. Using DataControl384 (Nanion's proprietary software), IC50 values were derived by fitting the normalized data to the Hill equation.

A further assay has as its target hERG channel (Homo sapiens (Human), UniProt Q12809). The assay can be described thus: hERG activity, automated patch clamp (SyncroPatch). The format is cell-based. The settings on record: CHO-K1 cells stably expressing hERG, tail current at −50 mV, compounds at 50 μM and 100 μM. As for the experimental part: This assay was used to evaluate the disclosed compounds' inhibition activities against the hERG channel.
CHO-K1 cells stably expressing hERG were grown in Ham's F-12 Medium with Glutamine containing 10% heat-inactivated FBS, 1% Penicillin/Streptomycin, Hygromycin (100 μg/ml), and G418 (100 μg/ml). Cells used for electrophysiology were plated in plastic culture flasks and grown at 37° C. in a 5% CO2-humidified incubator per ChanPharm SOP. Stocks were maintained in cryogenic storage.
The cells were bathed in an extracellular solution containing 140 mM NaCl, 4 mM KCl, 2 mM CaCl2), 1 mM MgCl2, 5 mM Glucose, and 10 mM HEPES; pH adjusted to 7.4 with NaOH; 295-305 mOsm. The internal solution contained 10 mM KCl, 110 mM KF, 10 mM NaCl, 10 mM EGTA, 10 mM HEPES; pH adjusted to 7.2 with KOH; 280-285 mOsm. All compounds were dissolved in DMSO at 30 mM. Compound stock solutions were freshly diluted with external solution to concentrations of 50 μM and 100 μM. The highest content of DMSO […].
All experiments were performed at room temperature. Each cell acted as its own control. In preparation for a recording session, intracellular solution (see above) was loaded into the intracellular compartments of the automated patch clamp platform SyncroPatch (Nanion) chip and the cell suspension was pipetted into the extracellular compartments. After establishment of a whole-cell configuration, membrane current recordings, and compound application were enabled by means of the SyncroPatch. hERG currents were elicited by a voltage pulse pattern with fixed amplitudes (depolarization: +20 mV amplitude, 300 ms duration; repolarization: −50 mV, 300 ms duration) repeated at 3 s intervals from a holding potential of −80 mV.
Data acquisition and analysis were performed using DataControl384 (Nanion's proprietary software). To determine the (percentage) inhibition, the last single pulse in the pulse train (i.e., the repolarization step to −50 mV; tail current) at a given compound concentration was used. AUC and peak values, obtained in the presence of compound, were normalized to control values in the absence of compound.

Chain of hERG channel (Q12809 whole entry): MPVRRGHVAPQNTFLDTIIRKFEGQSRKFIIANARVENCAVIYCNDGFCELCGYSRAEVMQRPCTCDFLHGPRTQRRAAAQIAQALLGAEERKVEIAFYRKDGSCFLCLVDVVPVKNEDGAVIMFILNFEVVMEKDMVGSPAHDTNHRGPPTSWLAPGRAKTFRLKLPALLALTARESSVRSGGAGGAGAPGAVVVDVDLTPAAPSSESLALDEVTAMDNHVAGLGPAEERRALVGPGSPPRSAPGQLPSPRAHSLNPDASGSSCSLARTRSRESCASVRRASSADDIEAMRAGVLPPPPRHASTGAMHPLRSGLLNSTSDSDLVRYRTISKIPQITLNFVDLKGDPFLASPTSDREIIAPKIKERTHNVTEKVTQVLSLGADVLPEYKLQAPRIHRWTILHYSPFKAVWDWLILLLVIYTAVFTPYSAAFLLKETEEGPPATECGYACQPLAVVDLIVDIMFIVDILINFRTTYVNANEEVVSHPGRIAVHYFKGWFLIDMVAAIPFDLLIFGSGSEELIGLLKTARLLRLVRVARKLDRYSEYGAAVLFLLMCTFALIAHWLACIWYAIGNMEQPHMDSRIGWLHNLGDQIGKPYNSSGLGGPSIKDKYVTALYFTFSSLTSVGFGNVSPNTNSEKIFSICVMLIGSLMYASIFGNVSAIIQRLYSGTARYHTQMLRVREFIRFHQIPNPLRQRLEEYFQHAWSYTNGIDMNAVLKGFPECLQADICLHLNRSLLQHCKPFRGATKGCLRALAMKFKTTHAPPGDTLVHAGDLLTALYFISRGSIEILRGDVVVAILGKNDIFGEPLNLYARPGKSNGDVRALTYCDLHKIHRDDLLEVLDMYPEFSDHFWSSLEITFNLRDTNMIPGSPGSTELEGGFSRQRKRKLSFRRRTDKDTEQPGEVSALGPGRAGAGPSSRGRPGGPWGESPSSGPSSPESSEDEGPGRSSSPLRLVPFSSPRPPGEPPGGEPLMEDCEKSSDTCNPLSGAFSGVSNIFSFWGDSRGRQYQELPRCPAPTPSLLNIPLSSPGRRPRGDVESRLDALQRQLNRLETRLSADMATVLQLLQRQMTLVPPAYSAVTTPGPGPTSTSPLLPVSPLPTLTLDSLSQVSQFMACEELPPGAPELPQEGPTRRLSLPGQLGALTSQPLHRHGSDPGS
Chain of human TRPA1 channel (O75762 whole entry): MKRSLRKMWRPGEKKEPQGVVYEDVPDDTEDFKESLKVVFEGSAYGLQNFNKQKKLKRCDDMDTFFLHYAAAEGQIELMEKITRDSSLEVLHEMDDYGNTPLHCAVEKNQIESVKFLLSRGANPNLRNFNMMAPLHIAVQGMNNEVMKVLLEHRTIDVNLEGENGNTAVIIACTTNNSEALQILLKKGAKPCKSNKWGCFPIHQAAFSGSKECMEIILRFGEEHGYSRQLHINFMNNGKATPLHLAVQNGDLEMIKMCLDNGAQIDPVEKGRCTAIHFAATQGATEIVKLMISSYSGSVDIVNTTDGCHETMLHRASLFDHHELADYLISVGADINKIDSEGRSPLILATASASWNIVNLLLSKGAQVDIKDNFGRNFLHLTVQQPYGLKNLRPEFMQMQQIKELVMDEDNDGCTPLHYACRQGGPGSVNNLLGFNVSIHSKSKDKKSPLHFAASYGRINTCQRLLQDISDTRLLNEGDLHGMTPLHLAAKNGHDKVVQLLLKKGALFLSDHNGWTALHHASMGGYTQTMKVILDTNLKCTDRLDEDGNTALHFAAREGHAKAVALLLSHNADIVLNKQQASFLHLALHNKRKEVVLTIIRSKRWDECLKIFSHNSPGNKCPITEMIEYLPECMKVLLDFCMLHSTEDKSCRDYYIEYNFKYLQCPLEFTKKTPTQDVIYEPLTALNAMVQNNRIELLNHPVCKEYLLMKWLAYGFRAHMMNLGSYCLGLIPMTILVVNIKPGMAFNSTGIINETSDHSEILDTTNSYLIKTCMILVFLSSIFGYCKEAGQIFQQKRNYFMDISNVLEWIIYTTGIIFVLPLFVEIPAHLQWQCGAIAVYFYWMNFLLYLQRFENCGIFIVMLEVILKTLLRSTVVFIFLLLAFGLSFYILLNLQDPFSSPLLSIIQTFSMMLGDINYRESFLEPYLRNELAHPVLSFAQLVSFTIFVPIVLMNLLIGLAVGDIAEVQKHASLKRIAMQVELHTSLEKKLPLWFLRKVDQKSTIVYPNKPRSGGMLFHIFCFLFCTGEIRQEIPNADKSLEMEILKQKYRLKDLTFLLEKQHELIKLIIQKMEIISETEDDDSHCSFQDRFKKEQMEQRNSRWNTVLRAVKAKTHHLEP

Consider `NC(=O)c1cn(Cc2nc(C[C@H](O)c3ccc(Cl)cc3)no2)c(=O)c(Cl)n1` [Compound 26, (S)-6-chloro-4-((3-(2-(4-chlorophenyl)-2-hydroxyethyl)-1,2,4-oxadiazol-5-yl)methyl)-5-oxo-4,5-dihydropyrazine-2-carboxamide], for which the IC50 is less than 1 µM on human TRPA1 channel (Table 4) and more than 50 µM on hERG channel (Table 4).
The like results for `Cc1nc(Br)cn(Cc2nc(C[C@H](O)c3ccc(Cl)cc3)no2)c1=O` [Compound 27, (S)-5-bromo-1-((3-(2-(4-chlorophenyl)-2-hydroxyethyl)-1,2,4-oxadiazol-5-yl)methyl)-3-methylpyrazin-2(1H)-one] were, in that order, less than 0.3 µM and less than 50 µM.
For `Cc1nc(C(N)=O)cn(Cc2nc(C[C@H](O)c3ccc(Cl)cc3)no2)c1=O` [Compound 29, 4-({3-[(2S)-2-(4-chlorophenyl)-2-hydroxyethyl]-1,2,4-oxadiazol-5-yl}methyl)-6-methyl-5-oxopyrazine-2-carboxamide] the same measures were less than 0.3 µM and more than 50 µM.
Turning to `Cc1c(CN)ncn(Cc2nc(CCc3ccc(Cl)cc3)no2)c1=O` [Compound 30, 6-(aminomethyl)-3-((3-(4-chlorophenethyl)-1,2,4-oxadiazol-5-yl)methyl)-5-methylpyrimidin-4(3H)-one], the IC50 on human TRPA1 channel (Table 4) is less than 0.3 µM; at hERG channel (Table 4), less than 50 µM.
Take `O=c1c(Cl)c(-c2cn[nH]c2)ncn1Cc1nc(C[C@H](O)c2ccc(Cl)cc2)no1` [Compound 35, (S)-5-chloro-3-((3-(2-(4-chlorophenyl)-2-hydroxyethyl)-1,2,4-oxadiazol-5-yl)methyl)-6-(1H-pyrazol-4-yl)pyrimidin-4(3H)-one]: the IC50 is less than 0.3 µM on human TRPA1 channel (Table 4) and less than 50 µM against hERG channel (Table 4).
For `Cc1ncn(Cc2nc(C[C@H](O)c3ccc(Cl)cc3)no2)c(=O)c1Cl` [Compound 36, (S)-5-chloro-3-((3-(2-(4-chlorophenyl)-2-hydroxyethyl)-1,2,4-oxadiazol-5-yl)methyl)-6-methylpyrimidin-4(3H)-one] the same measures were less than 0.1 µM and more than 50 µM.
In the case of `O=c1c(Cl)c(CO)ncn1Cc1nc(C[C@H](O)c2ccc(Cl)cc2)no1` [Compound 54, (S)-5-chloro-3-((3-(2-(4-chlorophenyl)-2-hydroxyethyl)-1,2,4-oxadiazol-5-yl)methyl)-6-(hydroxymethyl)pyrimidin-4(3H)-one], the figures for the IC50 on human TRPA1 channel (Table 5) and against hERG channel (Table 5) were less than 0.3 µM and more than 50 µM, respectively.
The like results for `Cc1c(Cl)ncn(Cc2nc(C[C@H](O)c3ccc(Cl)cc3)no2)c1=O` [Compound 58, (S)-6-chloro-3-((3-(2-(4-chlorophenyl)-2-hydroxyethyl)-1,2,4-oxadiazol-5-yl)methyl)-5-methylpyrimidin-4(3H)-one] were, in that order, less than 0.1 µM and more than 50 µM.
The like results for `N#Cc1ncn(Cc2nc(C[C@H](O)c3ccc(Cl)cc3)no2)c(=O)c1Cl` [Compound 63, 5-chloro-1-({3-[(2S)-2-(4-chlorophenyl)-2-hydroxyethyl]-1,2,4-oxadiazol-5-yl}methyl)-6-oxopyrimidine-4-carbonitrile] were, in that order, less than 0.1 µM and less than 50 µM.
For `Cc1c(-c2cn[nH]c2)ncn(Cc2nc(C[C@H](O)c3ccc(Cl)cc3)no2)c1=O` [Compound 65, (S)-3-((3-(2-(4-chlorophenyl)-2-hydroxyethyl)-1,2,4-oxadiazol-5-yl)methyl)-5-methyl-6-(1H-pyrazol-4-yl)pyrimidin-4(3H)-one], the IC50 is less than 0.3 µM on human TRPA1 channel (Table 5) and less than 50 µM at hERG channel (Table 5).
The like results for `Nc1c(Cl)ncn(Cc2nc(C[C@H](O)c3ccc(Cl)cc3)no2)c1=O` [Compound 66, (S)-5-amino-6-chloro-3-((3-(2-(4-chlorophenyl)-2-hydroxyethyl)-1,2,4-oxadiazol-5-yl)methyl)pyrimidin-4(3H)-one] were, in that order, less than 0.3 µM and more than 50 µM.
On to `O=c1c(Br)c(Cl)ncn1Cc1nc(C[C@H](O)c2ccc(Cl)cc2)no1` [Compound 67, (S)-5-bromo-6-chloro-3-((3-(2-(4-chlorophenyl)-2-hydroxyethyl)-1,2,4-oxadiazol-5-yl)methyl)pyrimidin-4(3H)-one], for which the IC50 is less than 0.1 µM at human TRPA1 channel (Table 5) and less than 50 µM on hERG channel (Table 5).
Regarding `COc1ncn(Cc2nc(C[C@H](O)c3ccc(Cl)cc3)no2)c(=O)c1Cl` [Compound 70, (S)-5-chloro-3-((3-(2-(4-chlorophenyl)-2-hydroxyethyl)-1,2,4-oxadiazol-5-yl)methyl)-6-methoxypyrimidin-4(3H)-one], the IC50 was less than 0.3 µM against human TRPA1 channel (Table 5) and more than 50 µM against hERG channel (Table 5).
The like results for `Nc1ncc(Cl)c(=O)n1Cc1nc(C[C@H](O)c2ccc(Cl)cc2)no1` [Compound 71, (S)-2-amino-5-chloro-3-((3-(2-(4-chlorophenyl)-2-hydroxyethyl)-1,2,4-oxadiazol-5-yl)methyl)pyrimidin-4(3H)-one] were, in that order, less than 0.1 µM and more than 50 µM.
The like results for `O=c1c(Cl)cnc(CO)n1Cc1nc(C[C@H](O)c2ccc(Cl)cc2)no1` [Compound 73, (S)-5-chloro-3-((3-(2-(4-chlorophenyl)-2-hydroxyethyl)-1,2,4-oxadiazol-5-yl)methyl)-2-(hydroxymethyl)pyrimidin-4(3H)-one] were, in that order, less than 0.1 µM and more than 50 µM.

(Values after US20250270198A1, “PYRIDONE COMPOUNDS AS TRPA1 INHIBITORS” (D. E. Shaw Research, LLC, priority 2022, published 2025).)
